The record followed here is patent US10071107B2, “Pharmaceutical composition for prevention, treatment or delay of Alzheimer's disease or dementia containing G protein-coupled receptor 19 agent as active ingredient” (SEOUL NATIONAL UNIVERSITY R&DB FOUNDATION, priority 2015, dated 2018).

Test [1] deals with Alzheimer's mouse model (5×FAD). The test is described as follows: Morris water maze (spatial learning, probe test). The format is in vivo. The settings on record: 1 mg/kg twice a week, total 20 times. Here is the method: [Experimental Method: Morris Water maze] An acryl-made platform having a diameter of 10 cm was installed in a circular water tank having a size of diameter×height=150 cm×80 cm and a camera was installed at the center of the water tank on the ceiling where the water tank was placed. Around the water tank, a horizontal cue, a vertical grid cue, and a circular object cue were disposed, respectively. For the experimental preparation, water at about 26° C. was filled in the water tank up to a height of about 1 cm from the top of the platform and a white water paint was dissolved.
At a first experimental day, the mouse was flooded at one position of the prepared water tank and swam for 3 minutes and then induced to move to the platform location by an experimenter's hand after 3 minutes and left for 1 minute on the platform. After 1 minute, the mouse was lifted and covered by both hands and put in a cage again after 1 minute. This process was repeated three times. […] The process was repeated everyday until a difference between mouse groups was decreased. At the final experimental day, the mouse was flooded in the water tank after removing the platform in the water tank and a video for 90 seconds was recorded and then a moving path and the number of platform pass times of the mouse in the water tank, a time latency of the platform location, and the like were analyzed by using analysis software.
After 1 mg/kg of PBS or sodium taurodeoxycholate was injected to a control mouse and an Alzheimer's mouse (4 per group) twice a week and a total of 20 times, a result of evaluation a spatial learning ability through a water maze experiment was illustrated in FIG. 2. It was verified that a time required when the Alzheimer's mouse found the platform was shortened by administrating the sodium taurodeoxycholate drug.
After 1 mg/kg of PBS or sodium taurodeoxycholate was injected to a control mouse and an Alzheimer's mouse (more than 10 per group) twice a week and a total of 20 times, a mouse behavior pattern was tracked in the water tank without the platform. A representative image of the result of tracking the mouse movement in the water tank without the platform was illustrated in FIG. 3.
In the above experiment, the result of measuring the number of times when the mouse crossed the platform location and a time latency at the platform location was illustrated in FIG. 4 and in the sodium taurodeoxycholate administration mouse group, it was verified that the degree of memorizing the platform was high.

Test [2] concerns Alzheimer's animal model (5×FAD). The class given is in vivo, mouse. The settings on record: 1 mg/kg twice a week, total 20 times.
Test [3] shares this test system. The test is described as follows: TUNEL staining of apoptotic region in brain tissue. The format is in vivo, mouse. The note with it: frontal cortex, FIG. 8. How it is done:
[Experimental Method: Tissue fluorescent staining] A mouse was anesthetized, the limbs were fixed and then the mouse was cut to expose the heart by scissors and tweezers. The upper right atrium was slightly cut by the scissors and punctured, a needle was put in the left ventricle, and PBS was injected and perfused. When the colors of the blood vessel and the organs turned to white, a 4% paraformaldehyde (PFA) solution was replaced and injected until muscle contraction occurred and the soles were hard. […] The cut tissue piece was attached on the slide by using a brush and blocked for preventing a nonspecific antibody binding, and then reacted with a specific antibody (coupled with a fluorescence) to a protein to be reported. […] The photographed image was converted into numeral values by measuring the fluorescent strength for each fluorescence by analysis software.
The brain tissue of the Alzheimer's model mouse administrated with the drug was extracted and a reduction of the lesion such as an apoptotic lesion in the frontal cortex and the hippocampus area was measured by fluorescent-staining, and the result was illustrated in FIG. 8. The PBS or sodium taurodeoxycholate was administrated in the Alzheimer's mouse and a region damaged by apoptosis in the frontal cortex of the administrated mouse was analyzed by TUNEL staining. […]

In test [4] the test system is Alzheimer's animal model. Description: Blood analysis of inflammatory substances (bioplex). The format is in vivo, mouse. The settings on record: 1 mg/kg twice per week, total 20 times; FIG. 9. How it is done: [Experimental Method: Blood analysis] The blood was obtained from the mouse by cardiac blood collection or orbital blood collection. For analyzing the inflammatory substance, the obtained blood was left for 2 hours at room temperature and centrifuged, a supernatant was taken, and each inflammatory substance was quantitatively analyzed by using a kit and equipment for bioplex. In order to analyze biochemical and hematopoietic cells, the obtained blood was put in an appropriate tube or container and applied to a biochemical analyzer and a hematology analyzer, respectively, to obtain data. FIG. 9 illustrates a result of analyzing an inflammatory substance in the blood by extracting the blood of the mouse after 1 mg/kg of PBS or sodium taurodeoxycholate is injected to a control mouse and an Alzheimer's mouse twice per week and a total of 20 times.

The test system of test [5] is Alzheimer's animal model. Description: Blood analysis of biochemical components (metabolites). The format is in vivo, mouse. The note with it: 1 mg/kg twice per week, total 20 times; FIG. 10. Here is the method:
[Experimental Method: Blood analysis] The blood was obtained from the mouse by cardiac blood collection or orbital blood collection. For analyzing the inflammatory substance, the obtained blood was left for 2 hours at room temperature and centrifuged, a supernatant was taken, and each inflammatory substance was quantitatively analyzed by using a kit and equipment for bioplex. In order to analyze biochemical and hematopoietic cells, the obtained blood was put in an appropriate tube or container and applied to a biochemical analyzer and a hematology analyzer, respectively, to obtain data. After 1 mg/kg of PBS or sodium taurodeoxycholate is injected to the control mouse and the Alzheimer's mouse twice per week and a total of 20 times, the blood of the mouse was extracted and then the biochemical components in the blood were analyzed. The result was illustrated in FIG. 10.

[6] abbreviates: probe test without platform, FIG. 4.

Consider `C[C@H](CCC(=O)NCCS(=O)(=O)[O-])[C@H]1CC[C@H]2[C@@H]3CC[C@@H]4C[C@H](O)CC[C@]4(C)[C@H]3C[C@H](O)[C@]12C.[Na+]` [sodium taurodeoxycholate], for which, in test [1] (setting [6]), the “number of times of crossing the platform location” value is reported as “significantly increased” and the “time latency at the platform location” value is “significantly increased”. The “time required when the Alzheimer's mouse found the platform” value in test [1] (water maze, FIG. 2) was “shortened”. Besides, the “moving pattern to the position of the platform” value in test [1] (water tank without platform, FIG. 3) is listed as “more actively observed”. Besides, in test [1] (water tank without platform, FIG. 4), the “degree of memorizing the platform” value is recorded as “high”. Also, in test [2] (frontal cortex area, FIG. 7), the “expression of iNOS” value is reported as “significantly reduced”. Besides, in test [2] (frontal cortex, FIGS. 5 and 6), the “cell distribution of astrocyte” value is reported as “significantly reduced”, the “cell distribution of microglia” value is “significantly reduced” and the “formation of the amyloid β plague” value is “significantly reduced”. The astrocyte cell distribution result in test [2] (hippocampus area, FIGS. 5 and 6) was “significantly reduced”. The “apoptotic region in the brain tissue” value in test [3] was “reduced”. Also, in the test with Alzheimer's animal model [4], the “amount of CCL3 in the blood” value is “increased”. For the same compound, in the test on Alzheimer's animal model [5], the “amount of glucose in the blood” value is listed as “decreased”.
